Test results published in patent US3984531A, “Technetium-99m-tin-monofluorophosphate complex” (The Radiochemical Centre Limited, priority 1973, dated 1976).

Assays:
[1] = skeletal imaging prior to 1971; cited from earlier work
[2] = monoenergetic; cited from earlier work
[3] = compared with stannous chloride
[4] = Subramanian and McAfee, Radiology 1971; cited from earlier work
[5] = long chain polyphosphate material; cited from earlier work

## [18FH] [Fluorine-18, fluorine-18]
[1]
  scan performance (in words): good agent

## [85Sr] [Strontium-85, strontium-85]
[1]
  scan performance (in words): poor quality scans

## [87Sr] [Strontium-87m, strontium-87m]
[1]
  scan performance (in words): high blood background

## [99Tc] [technetium-99m]
[2]
  gamma emission energy: 140 KeV

## Stannous fluoride
[3]
  stability to hydrolysis in aqueous solution (in words): more stable to hydrolysis in aqueous solution than stannous chloride

## tripolyphosphate
[4]
  skeletal uptake / localization (in words): good skeletal uptake of activity
[5]
  stability with respect to hydrolysis (in words): instability of the long chain polyphosphate material with respect to hydrolysis
